The values that follow come from patent publication US20230145835A1, “Modulators of Alpha-4-beta-7 Integrin and MAdCAM” (48HD Biopharma Inc., priority 2021, published 2023).

Where “and” joins values, the source holds several entries; their conditions need not be identical. Equal values may be shown once. Numbered stars: 1 amine (or outer) side, 2 acyl side, 3 side chain; on linkers, the order of the positions; unused ones are H or OH. Bridge positions count the residues as written; N and C are the ends. Square brackets hold non-standard residues; d marks the D form. Peptide text beside a SMILES is read from it. X3 = O=C(/C=N/OCCCCCCOc1cc(C[*:2])cc(C[*:3])c1)[*:1]; hSer = N[C@@H](CCO)C(=O)O; Nle = CCCC[C@H](N)C(=O)O

The target of the experiment is T1, rh-integrin α4β7/LPAM-1 (Homo sapiens, UniProt P13612+P26010).
T1 sequence (P13612 34-977 limits assumed): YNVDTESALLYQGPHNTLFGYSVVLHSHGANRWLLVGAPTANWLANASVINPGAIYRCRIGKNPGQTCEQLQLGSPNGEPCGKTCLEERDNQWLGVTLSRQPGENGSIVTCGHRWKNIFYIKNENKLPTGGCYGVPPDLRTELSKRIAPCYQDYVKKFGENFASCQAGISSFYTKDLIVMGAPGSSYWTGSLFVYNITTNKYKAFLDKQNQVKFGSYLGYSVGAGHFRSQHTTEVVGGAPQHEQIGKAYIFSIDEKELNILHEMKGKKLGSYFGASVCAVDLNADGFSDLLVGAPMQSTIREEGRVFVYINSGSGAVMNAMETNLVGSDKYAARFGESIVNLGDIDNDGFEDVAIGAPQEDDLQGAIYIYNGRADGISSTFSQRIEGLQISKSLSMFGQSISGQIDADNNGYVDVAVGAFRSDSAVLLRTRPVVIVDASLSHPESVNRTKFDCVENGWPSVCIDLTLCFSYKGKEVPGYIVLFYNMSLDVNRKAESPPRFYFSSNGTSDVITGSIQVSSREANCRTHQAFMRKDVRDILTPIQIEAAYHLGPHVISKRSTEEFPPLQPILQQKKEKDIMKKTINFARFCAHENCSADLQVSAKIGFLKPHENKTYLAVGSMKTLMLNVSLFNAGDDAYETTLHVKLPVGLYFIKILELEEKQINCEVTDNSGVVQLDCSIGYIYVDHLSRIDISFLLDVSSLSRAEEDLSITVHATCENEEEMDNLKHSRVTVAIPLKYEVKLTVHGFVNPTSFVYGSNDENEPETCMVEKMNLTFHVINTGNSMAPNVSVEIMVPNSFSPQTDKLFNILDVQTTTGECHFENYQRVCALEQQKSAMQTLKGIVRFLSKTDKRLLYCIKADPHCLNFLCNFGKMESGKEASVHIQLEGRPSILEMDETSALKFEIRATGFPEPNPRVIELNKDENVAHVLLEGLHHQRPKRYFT
T1 sequence (P26010 20-723 limits assumed): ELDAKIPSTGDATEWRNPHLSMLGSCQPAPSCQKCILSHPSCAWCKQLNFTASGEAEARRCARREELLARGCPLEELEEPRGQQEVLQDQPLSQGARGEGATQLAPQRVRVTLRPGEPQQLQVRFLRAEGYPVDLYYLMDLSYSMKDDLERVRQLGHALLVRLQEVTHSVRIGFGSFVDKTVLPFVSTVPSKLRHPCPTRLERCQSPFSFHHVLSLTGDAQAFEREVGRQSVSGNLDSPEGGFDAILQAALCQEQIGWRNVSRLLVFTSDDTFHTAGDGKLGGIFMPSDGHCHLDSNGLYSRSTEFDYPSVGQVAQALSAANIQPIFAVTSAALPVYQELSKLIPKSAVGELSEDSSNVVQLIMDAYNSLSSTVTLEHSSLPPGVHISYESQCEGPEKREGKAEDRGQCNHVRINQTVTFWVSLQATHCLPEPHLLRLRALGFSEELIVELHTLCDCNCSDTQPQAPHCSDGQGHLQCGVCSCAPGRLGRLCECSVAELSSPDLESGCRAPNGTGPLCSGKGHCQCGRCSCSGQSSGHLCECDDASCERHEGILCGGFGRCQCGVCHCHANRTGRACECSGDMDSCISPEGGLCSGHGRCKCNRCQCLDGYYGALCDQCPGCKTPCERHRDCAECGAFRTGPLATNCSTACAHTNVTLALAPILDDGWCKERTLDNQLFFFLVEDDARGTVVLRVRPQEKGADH
As to the kind of experiment: α4β7-MadCAM Competition ELISA (Example 4). Particulars: Table 3 Representative compounds; inhibition of MAdCAM binding to coated α4β7; read-out: IC50. The experiment is classed as binding. On the procedure: After washing with wash buffer, 200 μL assay buffer was added to each well and incubated for one hour at 28° C. After another wash with wash buffer, 100 μL of a MAdCAM and peptide mixture in assay buffer was added to each well and incubated for one hour at 28° C., followed by washing with wash buffer.
(An ELISA detects its analyte on a solid surface through an enzyme-linked reagent.)

What is called IC50 is the point on the concentration scale where inhibition reaches its midpoint. `CCCC[C@@H]1NC(=O)[C@@H]2CCCN2C(=O)[C@@H]2CSCc3cc(cc(c3)OCCCCCCO/N=C/C(=O)N[C@@H](CCCNC(=N)N)C(=O)N2)CSC[C@@H](C(N)=O)NC(=O)[C@H](CCC(=O)O)NC(=O)[C@H](Cc2ccc(O)cc2)NC(=O)[C@H](Cc2c[nH]c3ccccc23)NC(=O)[C@H](C(C)C)NC(=O)[C@H](CC(=O)O)NC1=O` [compound 6] (RCP[Nle]DVWYEC-NH2; linker N-2-10 via X3): the IC50 turned out to be 130 nM.

On to `CC(=O)N[C@H]1CSSC[C@@H](C(=O)NCC(=O)N[C@@H](CCC(=O)O)C(N)=O)NC(=O)[C@H](CC(C)C)NC(=O)[C@H]([C@@H](C)O)NC(=O)[C@H](CC(=O)O)NC(=O)[C@H](CO)NC(=O)[C@H](CCCNC(=N)N)NC1=O` [compound 7] (Ac-CRSDTLCGE-NH2; disulfide 1-7), for which the half-maximal inhibitory concentration (IC50) amounted to 136 nM.

In the case of `CC(C)C[C@@H]1NC(=O)[C@H]([C@@H](C)O)NC(=O)[C@H](CC(=O)O)NC(=O)[C@H](CO)NC(=O)[C@H](CCCNC(=N)N)NC(=O)[C@@H](N)CSSC[C@@H](C(N)=O)NC1=O` [compound 8] (H-CRSDTLC-NH2; disulfide 1-7), the IC50 turned out to be 186 nM.

As for `CCCC[C@@H]1NC(=O)[C@@H]2CCCN2C(=O)[C@@H]2CSCc3cc(cc(c3)OCCCCCCO/N=C/C(=O)N[C@@H](CCCNC(=N)N)C(=O)N2)CSC[C@@H](C(N)=O)NC(=O)[C@H](CCC(=O)O)NC(=O)[C@H](CCC(N)=O)NC(=O)[C@H](Cc2c[nH]c3ccccc23)NC(=O)[C@H]([C@@H](C)CC)NC(=O)[C@H](CC(=O)O)NC1=O` [compound 9] (RCP[Nle]DIWQEC-NH2; linker N-2-10 via X3), the concentration for half-maximal inhibition (IC50) was found to be 187 nM.

`CC(C)C[C@@H]1NC(=O)[C@@H]2CCCN2C(=O)[C@@H]2CSCc3cc(cc(c3)OCCCCCCO/N=C/C(=O)N[C@@H](CCCCN)C(=O)N2)CSC[C@@H](C(N)=O)NC(=O)[C@H](CCC(=O)O)NC(=O)[C@H](Cc2ccc(O)cc2)NC(=O)[C@@H]2CCCN2C(=O)[C@H](C(C)C)NC(=O)[C@H](CC(=O)O)NC1=O` [compound 10] (KCPLDVPYEC-NH2; linker N-2-10 via X3): the IC50 was found to be 188 nM.

For the compound `CC[C@H](C)[C@@H]1NC(=O)[C@H](CC(=O)O)NC(=O)[C@H](CC(C)C)NC(=O)[C@@H]2CCCN2C(=O)[C@@H]2CSCc3cc(cc(c3)OCCCCCCO/N=C/C(=O)N[C@@H](CCCCN)C(=O)N2)CSC[C@@H](C(N)=O)NC(=O)[C@H](CCC(=O)O)NC(=O)[C@H](Cc2ccc(O)cc2)NC(=O)[C@@H]2CCCN2C1=O` [compound 11] (KCPLDIPYEC-NH2; linker N-2-10 via X3), the IC50 stood at 198 nM.

In the case of `CCCC[C@@H]1NC(=O)[C@@H]2CCCN2C(=O)[C@@H]2CSCc3cc(cc(c3)OCCCCCCO/N=C/C(=O)N[C@@H](CCCNC(=N)N)C(=O)N2)CSC[C@@H](C(N)=O)NC(=O)[C@H](CCC(=O)O)NC(=O)[C@H](C)NC(=O)[C@H](C)NC(=O)[C@H]([C@@H](C)CC)NC(=O)[C@H](CC(=O)O)NC1=O` [compound 12] (RCP[Nle]DIAAEC-NH2; linker N-2-10 via X3), the IC50 is 204 nM.

Take `CC[C@H](C)[C@@H]1NC(=O)[C@H](CC(=O)O)NC(=O)[C@H](CCSC)NC(=O)[C@@H]2CCCN2C(=O)[C@@H]2CSCc3cc(cc(c3)OCCCCCCO/N=C/C(=O)N[C@@H](CCCNC(=N)N)C(=O)N2)CSC[C@@H](C(N)=O)NC(=O)[C@H](CCC(=O)O)NC(=O)CNC(=O)[C@H](C)NC1=O` [compound 13] (RCPMDIAGEC-NH2; linker N-2-10 via X3): the half-inhibitory concentration (IC50) was found to be 227 nM.

For the compound `CC[C@H](C)[C@@H]1NC(=O)[C@H](CC(=O)O)NC(=O)[C@H](CCOC)NC(=O)[C@@H]2CCCN2C(=O)[C@@H]2CSCc3cc(cc(c3)OCCCCCCO/N=C/C(=O)N[C@@H](CCCNC(=N)N)C(=O)N2)CSC[C@@H](C(N)=O)NC(=O)[C@H](CCC(=O)O)NC(=O)[C@H](CCC(N)=O)NC(=O)[C@H](Cc2c[nH]c3ccccc23)NC1=O` [compound 14] (RCP[hSer](Me)DIWQEC-NH2; linker N-2-10 via X3), the IC50 came out at 260 nM.

With `CCCC[C@@H]1NC(=O)[C@@H]2CCCN2C(=O)[C@@H]2CSCc3cc(cc(c3)OCCCCCCO/N=C/C(=O)N[C@@H](CCCNC(=N)N)C(=O)N2)CSC[C@@H](C(N)=O)NC(=O)[C@H](CCC(=O)O)NC(=O)CNC(=O)[C@H](C)NC(=O)[C@H](C(C)C)NC(=O)[C@H](CC(=O)O)NC1=O` [compound 15] (RCP[Nle]DVAGEC-NH2; linker N-2-10 via X3), the IC50 turned out to be 261 nM.

In the case of `CC[C@H](C)[C@@H]1NC(=O)[C@H](CC(=O)O)NC(=O)[C@H](CCSC)NC(=O)[C@@H]2CCCN2C(=O)[C@@H]2CSCc3cc(cc(c3)OCCCCCCO/N=C/C(=O)N[C@@H](CCCNC(=N)N)C(=O)N2)CSC[C@@H](C(N)=O)NC(=O)[C@H](CCC(=O)O)NC(=O)[C@H](CCC(N)=O)NC(=O)[C@H](Cc2c[nH]c3ccccc23)NC1=O` [compound 16] (RCPMDIWQEC-NH2; linker N-2-10 via X3), the IC50 was 272 nM.

With `CC[C@H](C)[C@@H]1NC(=O)[C@H](CC(=O)O)NC(=O)[C@H](CCSC)NC(=O)[C@@H]2CCCN2C(=O)[C@@H]2CSCc3cc(cc(c3)OCCCCCCO/N=C/C(=O)N[C@@H](CCCCN)C(=O)N2)CSC[C@@H](C(N)=O)NC(=O)[C@H]([C@@H](C)O)NC(=O)[C@@H]2CCCN2C1=O` [compound 18] (KCPMDIPTC-NH2; linker N-2-9 via X3), the concentration for half-maximal inhibition (IC50) amounted to 345 nM.

For the compound `CC(C)C[C@@H]1NC(=O)[C@@H]2CCCN2C(=O)[C@@H]2CSCc3cc(cc(c3)OCCCCCCO/N=C/C(=O)N[C@@H](CCCCN)C(=O)N2)CSC[C@@H](C(N)=O)NC(=O)[C@H](CCC(=O)O)NC(=O)[C@H](Cc2ccc(O)cc2)NC(=O)[C@@H]2CCCN2C(=O)[C@H](CC(C)C)NC(=O)[C@H](CC(=O)O)NC1=O` [compound 19] (KCPLDLPYEC-NH2; linker N-2-10 via X3), the concentration for half-maximal inhibition (IC50) is 363 nM.

Take `CC[C@H](C)[C@@H]1NC(=O)[C@H](CC(=O)O)NC(=O)[C@H](CCSC)NC(=O)[C@@H]2CCCN2C(=O)[C@@H]2CSCc3cc(cc(c3)OCCCCCCO/N=C/C(=O)N[C@@H](CCCNC(=N)N)C(=O)N2)CSC[C@@H](C(N)=O)NC(=O)[C@H]([C@@H](C)O)NC(=O)[C@@H]2CCCN2C1=O` [compound 20] (RCPMDIPTC-NH2; linker N-2-9 via X3): the half-maximal inhibitory concentration (IC50) worked out at 404 nM.

Turning to `CC(C)C[C@@H]1NC(=O)[C@@H]2CCCN2C(=O)[C@@H]2CSCc3cc(cc(c3)OCCCCCCO/N=C/C(=O)N[C@@H](CCCCN)C(=O)N2)CSC[C@@H](C(N)=O)NC(=O)[C@H](CCC(=O)O)NC(=O)[C@H](Cc2ccc(O)cc2)NC(=O)[C@@H]2CCCN2C(=O)[C@H]([C@@H](C)O)NC(=O)[C@H](CC(=O)O)NC1=O` [compound 22, TSL6- SKCPLDTPYEC] (KCPLDTPYEC-NH2; linker N-2-10 via X3), the IC50 is 495 nM and 940 nM.

`CSCC[C@@H]1NC(=O)[C@@H]2CCCN2C(=O)[C@@H]2CSCc3cc(cc(c3)OCCCCCCO/N=C/C(=O)N[C@@H](CCCNC(=N)N)C(=O)N2)CSC[C@@H](C(N)=O)NC(=O)[C@H](CCC(=O)O)NC(=O)CNC(=O)[C@H](C)NC(=O)[C@H](C(C)C)NC(=O)[C@H](CC(=O)O)NC1=O` [compound 23, TSL6- SRCPMDVAGEC] (RCPMDVAGEC-NH2; linker N-2-10 via X3): the IC50 was 511 nM.

On to `CC(C)C[C@@H]1NC(=O)[C@@H]2CCCN2C(=O)[C@@H]2CSCc3cc(cc(c3)OCCCCCCO/N=C/C(=O)N[C@@H](CCCCN)C(=O)N2)CSC[C@@H](C(N)=O)NC(=O)[C@H](C)NC(=O)[C@H](Cc2ccc(O)cc2)NC(=O)[C@@H]2CCCN2C(=O)[C@H]([C@@H](C)O)NC(=O)[C@H](CC(=O)O)NC1=O` [compound 24, TSL6- SKCPLDTPYAC] (KCPLDTPYAC-NH2; linker N-2-10 via X3), for which the IC50 is 517 nM.
